Patent US8821839B2, “Compositions and methods for imparting a sunless tan with a vicinal diamine” (Conopco, Inc., priority 2010, dated 2014)

Experiment: Individual Typologic Angle change on synthetic skin for 2.5% DHA plus adjuvant in citric acid/citrate buffer solution
Conditions: adjuvant at molar equivalent of 1% glycine; for ΔITA ° after 2 hours: pH about 5.5, 2 hours; for ΔITA ° after 4 hours: pH about 5.5, 4 hours
Procedure: The synthetic skin was pre-hydrated at 95% RH for 24 hours and then treated with portions of the samples at a dosage of 5 μL/cm^2. The treated synthetic skin was then stored at 35° C. and 40% RH for periods up to 24 hours. […]
Formulations in Table IV containing 2.5% DHA and the molar equivalent of 1% glycine as adjuvant in a citric acid/citrate buffer solution were prepared. The formulations were adjusted to a pH of about 5.5 to mimic the formulation pH after application to human skin.
Individual Typologic Angle results were obtained in a manner similar to the one described in Example 1.

SMILES	ΔITA ° after 2 hours [°]	ΔITA ° after 4 hours [°]
NC1CCCCC1N (stereo not shown) [1,2-diamino cyclohexane]	20 ± 3	35 ± 3
NCCCCN [1,4-diamino butane]	4 ± 2	12 ± 4
CC(N)CN (stereo not shown) [1,2-diamino propane]	17 ± 2	32 ± 3
CN(C)CCN [N,N-dimethyl ethylene diamine]	4 ± 2	8 ± 2
NCCCN [1,3-diamino propane]	6 ± 3	16 ± 4
NCCN [Ethylene diamine]	16 ± 2	32 ± 3
NCC(=O)O [Glycine]	2 ± 1	7 ± 2
NC1C(O)OC(CO)C(O)C1N (stereo not shown) [3,4-diamino-6-hydroxymethyl-tetrahydro-pyrane 2,5-diol]	15 ± 3	23 ± 2
